Test results published in patent publication US20020016346A1, “Method for enhancing outflow of aqueous humor in treatment of glaucoma” (The Regents University of California, a California …, priority 1994, published 2002).

Experiments:
Na—K—Cl cotransport [1] = target: T1, Na—K—Cl cotransport (Bos taurus, UniProt F1MS08); experiment: K influx (86Rb) in bovine TM cell monolayers; assay type: cell-based; conditions: bovine TM cells
T1 sequence (F1MS08 1-1204): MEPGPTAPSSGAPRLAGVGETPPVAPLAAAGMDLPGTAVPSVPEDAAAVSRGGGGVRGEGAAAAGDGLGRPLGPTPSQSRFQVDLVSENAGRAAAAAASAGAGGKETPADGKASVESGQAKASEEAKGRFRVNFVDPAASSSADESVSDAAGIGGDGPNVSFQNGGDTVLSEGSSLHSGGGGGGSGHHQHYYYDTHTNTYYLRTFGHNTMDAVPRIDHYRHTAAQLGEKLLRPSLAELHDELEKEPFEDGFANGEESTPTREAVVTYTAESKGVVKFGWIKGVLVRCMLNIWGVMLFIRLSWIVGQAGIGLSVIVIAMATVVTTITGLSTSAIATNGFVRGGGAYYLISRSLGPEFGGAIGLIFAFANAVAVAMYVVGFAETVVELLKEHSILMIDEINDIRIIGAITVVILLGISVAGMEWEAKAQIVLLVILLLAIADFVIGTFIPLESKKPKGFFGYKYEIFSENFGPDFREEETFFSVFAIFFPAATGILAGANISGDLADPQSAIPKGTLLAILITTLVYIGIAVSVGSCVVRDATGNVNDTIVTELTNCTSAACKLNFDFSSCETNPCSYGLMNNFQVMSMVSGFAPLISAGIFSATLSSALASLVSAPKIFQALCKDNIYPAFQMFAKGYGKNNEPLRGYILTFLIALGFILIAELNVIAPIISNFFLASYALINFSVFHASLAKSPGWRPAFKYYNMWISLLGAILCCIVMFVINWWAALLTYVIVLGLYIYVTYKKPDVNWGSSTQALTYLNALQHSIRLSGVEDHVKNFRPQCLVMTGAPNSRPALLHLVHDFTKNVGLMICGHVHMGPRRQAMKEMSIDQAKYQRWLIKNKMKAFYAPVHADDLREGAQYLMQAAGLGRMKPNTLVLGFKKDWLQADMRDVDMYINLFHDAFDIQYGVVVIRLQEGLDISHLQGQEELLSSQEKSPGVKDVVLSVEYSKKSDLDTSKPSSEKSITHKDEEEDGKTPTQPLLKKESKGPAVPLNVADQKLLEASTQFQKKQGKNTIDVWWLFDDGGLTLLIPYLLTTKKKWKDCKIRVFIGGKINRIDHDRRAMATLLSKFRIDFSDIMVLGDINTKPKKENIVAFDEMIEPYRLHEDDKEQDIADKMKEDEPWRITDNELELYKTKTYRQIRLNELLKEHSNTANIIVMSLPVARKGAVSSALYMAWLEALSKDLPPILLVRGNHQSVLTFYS
Experimental: (§1) Details of this method have been published previously (O'Donnell, M. E., supra, 1989). Briefly, bovine or human TM cell monolayers on 24 well plates were equilibrated for 10 minutes at 37° C. in a Hepes-buffered minimal essential medium (MEM) containing (in mM): 144 Na, 147 Cl, 5.8 K, 1.2 Ca, 4.2 HCO3, 0.4 H2PO4, […], 0.4 SO4, 5.6 glucose and 20 Hepes. […] The assay medium also contained ^86Rb (1 μCi/ml) (Dupont New England Nuclear, Boston, Mass.). The assay was terminated by rinsing the wells with ice-cold isotonic MgCl2, then extracting the contents with 0.2% sodium dodecyl sulfate (SDS), and determining the amount of radioactive contents by liquid scintillation. Osmolarities of all preincubation and assay media were verified by osmometry (Model 3W2, Advanced Instruments, Norwood, Mass.).
The effects of hormones, neurotransmitters and second messengers on Bumetanide-sensitive K influx of bovine trabecular meshwork cells were assessed using the procedures of Example 1. […] The control is the Hepes-buffered medium containing Na, K, Cl, CA and other ions as described in Example 1B. […] The data represent the mean values±SEM of quadruplicate determinations from two experiments.

eye of a rabbit = experiment: Intra-ocular pressure in rabbits after subconjunctival injection; assay type: in vivo
Experimental: Male albino New Zealand rabbits weighing≧2 Kg were used for in vivo experiments performed under various active animal use protocols approved by the Institutional Animal Care and Use Committee at UC Davis. Animals were sedated with an intravenous dose of Napentabarbitol, 1-2 mg/Kg to permit their handling and frequent measurement of intra-ocular pressure (IOP). Topical anesthesia consisting of Proparacaine HCl (Alcaine™) was used for IOP measurements. A pneumatonometer (Mentor O & O Classic Model 30 Penumatonometer™, Norwell, Mass.) calibrated to a known (25 mmHg) pressure prior to each experiment was used for all IOP measurements. This model of Pneumatonometer provides a readout of standard deviation of each measurement; only measurements with a standard deviation of≦1 mmHg were accepted and most were less than 0.5 mmHg. Following sedation, IOP measurements were carried out over at least 30 minutes to assure that a stable baseline IOP was present.
Drugs and/or vehicle was administered to one eye of each animal via subconjunctival injection in order to bypass any barriers to drug penetration, such as an intact corneal and conjunctival epithelium and to achieve rapid and high concentrations of drug, bypassing epithelial barriers. The contralateral eye treated only with vehicle served as a control for each animal. Two syringes were prepared for each experiment, one containing drug and vehicle, the other containing only vehicle. […] Injections raised a prominent bleb, confirming subconjunctival placement of the drug or vehicle. This bleb then smoothed out over about ten minutes, indicating diffusion of the drug or vehicle throughout the subconjunctival space.
Measurements of intra-ocular pressure were taken at various intervals following the subconjunctival administration of the drug and/or vehicle. IOP in both eyes fluctuated over time reflecting the level of anesthesia. During the course of the experiment, the animal handlers and investigators were masked as to which eve had received the drug or control injection.

Na—K—Cl cotransport [2] = target: T2, Na—K—Cl cotransport (Homo sapiens, UniProt P55011); experiment: K influx (86Rb) in human TM cell monolayers; assay type: cell-based; conditions: human TM cells, 1 mM ethacrynic acid
T2 construct: bovine or human TM cell monolayers on 24 well plates; endogenous in cells; host or cells: primary cultured human trabecular meshwork cells
T2 sequence (P55011 1-1212): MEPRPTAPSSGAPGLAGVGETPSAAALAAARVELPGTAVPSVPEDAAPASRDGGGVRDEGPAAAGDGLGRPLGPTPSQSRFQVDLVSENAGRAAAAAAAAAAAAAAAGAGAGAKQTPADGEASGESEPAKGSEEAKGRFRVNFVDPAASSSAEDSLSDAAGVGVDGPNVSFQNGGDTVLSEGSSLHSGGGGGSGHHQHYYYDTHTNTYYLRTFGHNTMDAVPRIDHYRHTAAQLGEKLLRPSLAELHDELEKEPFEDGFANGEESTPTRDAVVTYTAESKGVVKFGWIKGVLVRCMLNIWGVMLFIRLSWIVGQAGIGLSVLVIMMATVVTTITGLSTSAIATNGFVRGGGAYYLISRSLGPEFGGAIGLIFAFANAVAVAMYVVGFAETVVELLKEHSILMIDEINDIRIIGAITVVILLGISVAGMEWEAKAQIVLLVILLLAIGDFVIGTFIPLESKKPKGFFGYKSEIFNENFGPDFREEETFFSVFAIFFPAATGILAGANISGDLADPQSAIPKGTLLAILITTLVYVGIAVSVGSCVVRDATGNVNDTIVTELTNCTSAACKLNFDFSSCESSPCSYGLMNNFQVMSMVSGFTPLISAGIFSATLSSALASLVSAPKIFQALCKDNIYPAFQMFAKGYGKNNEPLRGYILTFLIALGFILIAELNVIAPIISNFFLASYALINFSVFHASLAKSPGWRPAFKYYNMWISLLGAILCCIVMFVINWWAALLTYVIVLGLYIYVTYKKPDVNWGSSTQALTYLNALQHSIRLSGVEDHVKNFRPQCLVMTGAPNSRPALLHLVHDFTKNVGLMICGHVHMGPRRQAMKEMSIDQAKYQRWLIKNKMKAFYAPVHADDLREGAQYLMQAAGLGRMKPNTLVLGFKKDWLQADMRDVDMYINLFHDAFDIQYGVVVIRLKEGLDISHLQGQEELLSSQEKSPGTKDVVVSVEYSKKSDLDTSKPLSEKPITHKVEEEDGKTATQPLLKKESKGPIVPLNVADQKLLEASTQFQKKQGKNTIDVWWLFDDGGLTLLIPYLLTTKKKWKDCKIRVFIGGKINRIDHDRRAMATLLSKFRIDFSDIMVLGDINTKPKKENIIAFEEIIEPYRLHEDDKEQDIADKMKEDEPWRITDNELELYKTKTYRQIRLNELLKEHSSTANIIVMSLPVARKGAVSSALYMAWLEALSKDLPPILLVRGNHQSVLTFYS
Experimental: as §1

bovine TM cells = experiment: TM cell volume by electronic cell sizing (Coulter Counter); assay type: cell-based; conditions: 30 minute exposure; bumetanide 10 μM, ethacrynic acid 1 mM; versus Hepes MEM control
Experimental: By the second method, TM cells were trypsinized briefly in Ca-free medium, then rinsed with medium containing trypsin inhibitor and suspended in Hepes MEM. Mean cell volumes were then analyzed by electronic cell sizing on a Coulter Counter™ […] (Model ZM), with channelizer (C256), using at least 50,000 cells per data point and an orifice diameter of 140 μm. Aliquots of suspended cells were diluted into Hepes MEM containing the tonicity and/or agents to be evaluated. Mean cell volumes of each suspension aliquot were followed over time, starting at 1 minute after addition of cells to the assay media. Cell suspensions were maintained at 37° C. throughout the assay period. Absolute volumes (picoliters/cell) were calculated from distribution curves of cell diameter, using a standard curve generated by polystyrene latex beads of known diameter.
In order to determine whether the Na—K—Cl cotransporter of TM cells may play a role in restoration of intracellular volume following hypertonicity-induced cell shrinkage, we evaluated the effect of hypertonicity on TM cell volume and Na^+—K^+—2Cl^− cotransport activity. […] The intracellular volume of the cells then increased over a slower time course, with volume recovering to approximately 84% by 33 minutes as shown in FIG. 3A.

[3] = VP 100 nM, NE 10 μM, Ach 1 μM, cAMP 50 μM, cGMP 50 μM, A23187 1 μM, PMA 10 nM, Ca-free medium plus 5 μM BAPTA-AM, control 25.6 ± 0.71

With CC(=O)OCOC(=O)CN(CC(=O)OCOC(C)=O)c1ccccc1OCCOc1ccccc1N(CC(=O)OCOC(C)=O)CC(=O)OCOC(C)=O [Ca-free, 1,2-bis (o-aminophenoxy)ethane-N,N,N′,N-tetraacetic acid acetoxymethyl ester] the “BUMETANIDE-SENSITIVE K INFLUX” value (Na—K—Cl cotransport [1]; [3]) was 4.9 ± 1.06 μmol/g protein/min.
With CNc1ccc2oc(C[C@H]3O[C@@]4(CC[C@H]3C)O[C@H]([C@H](C)C(=O)c3ccc[nH]3)[C@H](C)C[C@H]4C)nc2c1C(=O)O [Compound A23187, A23187] the “BUMETANIDE-SENSITIVE K INFLUX” value (Na—K—Cl cotransport [1]; [3]) was 33.4 ± 5.33 μmol/g protein/min.
With NC[C@H](O)c1ccc(O)c(O)c1 [NE, norepinephrine] the “BUMETANIDE-SENSITIVE K INFLUX” value (Na—K—Cl cotransport [1]; [3]) was 18.6 ± 1.79 μmol/g protein/min.
For CCCCCCCCCCCCCC(=O)O[C@@H]1[C@@H](C)[C@@]2(O)[C@@H](C=C(CO)C[C@]3(O)C(=O)C(C)=C[C@@H]23)[C@@H]2C(C)(C)[C@]12OC(C)=O [PMA, phorbol 12-myristate 13-acetate], the “BUMETANIDE-SENSITIVE K INFLUX” value (Na—K—Cl cotransport [1]; [3]) was 34.0 ± 1.33 μmol/g protein/min.
NC(=O)CC[C@@H]1NC(=O)[C@H](Cc2ccccc2)NC(=O)[C@H](Cc2ccc(O)cc2)NC(=O)[C@@H](N)CSSC[C@@H](C(=O)N2CCC[C@H]2C(=O)N[C@@H](CCCN=C(N)N)C(=O)NCC(N)=O)NC(=O)[C@H](CC(N)=O)NC1=O [VP, vasopressin] was tested, and the “BUMETANIDE-SENSITIVE K INFLUX” value (Na—K—Cl cotransport [1]; [3]) was 40.4 ± 1.05 μmol/g protein/min.
For NS(=O)(=O)c1cc(C(=O)O)cc(NCc2ccccc2)c1Oc1ccccc1 [benzmetanide], the “time after which significant reduction of IOP was observed” value (eye of a rabbit; 0.1 cc of 7.5 μM benzmetanide subconjunctival) was 15 min and the “decrease in IOP” value (eye of a rabbit; 0.1 cc of 7.5 μM benzmetanide subconjunctival, after 50 minutes, relative to contralateral control eye) was 24%.
Nc1nc2c(nc(Br)n2[C@@H]2O[C@@H]3COP(=O)(O)O[C@H]3[C@H]2O)c(=O)[nH]1 [cGMP, 8-bromo-cyclic GMP] was tested, and the “BUMETANIDE-SENSITIVE K INFLUX” value (Na—K—Cl cotransport [1]; [3]) was 19.7 ± 0.74 μmol/g protein/min.
C=C(CC)C(=O)c1ccc(OCC(=O)O)c(Cl)c1Cl [ethacrynic acid] was tested, and the “BUMETANIDE-SENSITIVE K INFLUX” value (Na—K—Cl cotransport [1]; 1 mM ethacrynic acid) was “abolished”, the “BUMETANIDE-SENSITIVE K INFLUX” value (Na—K—Cl cotransport [2]) was “abolished” and the intracellular volume (bovine TM cells) was “significant reduction”.
NS(=O)(=O)c1cc(C(=O)O)c(NCc2ccco2)cc1Cl [furosemide] was tested, and the “time after injection of significant drop in relative IOP” value (eye of a rabbit; 0.1 cc of 100 μM furosemide subconjunctival) was 25 min and the “maximal inhibition (relative IOP)” value (eye of a rabbit; 0.1 cc of 100 μM furosemide subconjunctival, experiment ended at 45 minutes) was 12.4%.
In the case of Cc1cccc(Nc2ccncc2S(=O)(=O)NC(=O)NC(C)C)c1 [torasemide], the IOP-lowering effect (eye of a rabbit; 0.1 cc of 1 μM torasemide subconjunctival) is reported as “time coarse and magnitude similar to that seen with bumetanide” and the “average IOP lowering effect” value (eye of a rabbit; average of two experiments, FIG. 6) is reported as “over 20%”.
